Measurements as given in US20220251036A1, “DIFLUOROHALOALLYLAMINE SULFONE DERIVATIVE INHIBITORS OF LYSYL OXIDASES, METHODS OF PREPARATION, AND USES THEREOF” (PHARMAXIS LTD., priority 2019, published 2022).

How the values were obtained:
recombinant human DAO = target: T1, recombinant human DAO (Homo sapiens, UniProt P19801); test: DAO inhibition; assay type: biochemical; conditions: 2 hours incubation
T1 construct: Gift: Prof; Boehm, Department of Clinical Pharmacology, Medical University, Vienna
T1 sequence (P19801 20-751): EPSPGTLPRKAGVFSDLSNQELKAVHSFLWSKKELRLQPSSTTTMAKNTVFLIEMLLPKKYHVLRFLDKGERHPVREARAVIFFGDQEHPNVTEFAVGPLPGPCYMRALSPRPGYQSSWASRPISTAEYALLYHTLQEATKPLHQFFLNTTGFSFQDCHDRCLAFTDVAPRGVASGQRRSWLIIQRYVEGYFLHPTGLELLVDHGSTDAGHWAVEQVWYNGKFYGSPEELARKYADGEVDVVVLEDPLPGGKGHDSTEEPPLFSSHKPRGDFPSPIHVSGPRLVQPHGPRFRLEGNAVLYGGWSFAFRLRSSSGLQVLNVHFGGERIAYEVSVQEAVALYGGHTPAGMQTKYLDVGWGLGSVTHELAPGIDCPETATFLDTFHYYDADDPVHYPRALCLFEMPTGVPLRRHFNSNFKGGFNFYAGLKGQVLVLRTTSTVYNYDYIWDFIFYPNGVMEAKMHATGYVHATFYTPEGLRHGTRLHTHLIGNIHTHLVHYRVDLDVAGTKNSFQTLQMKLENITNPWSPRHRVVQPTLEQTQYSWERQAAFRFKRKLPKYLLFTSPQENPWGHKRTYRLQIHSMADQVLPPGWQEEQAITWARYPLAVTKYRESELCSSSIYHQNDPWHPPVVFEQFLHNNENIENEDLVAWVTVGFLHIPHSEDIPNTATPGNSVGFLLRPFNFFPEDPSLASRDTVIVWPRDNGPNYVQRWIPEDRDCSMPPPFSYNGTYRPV
Experimental: The specificity of the compounds of this invention was tested by determining their ability to inhibit DAO activity in vitro, using recombinant human DAO (100 ng/mL; kindly provided by Prof. Boehm, Department of Clinical Pharmacology, Medical University, Vienna). The assay was performed in a similar way as for human SSAO/VAP-1 (Example 8) except, the incubation with the test compounds was extended to 2 hours, and the substrate […] was used at 100 μM in place of benzylamine.

LOX = test: Lysyl oxidase activity in rat skin after topical administration; assay type: in vivo; conditions: for dorsal skin LOX activity compared to the placebos: rats, topical
Experimental: Dorsal and ventral skin from rats treated by topical application of compound 1 were semi-defrosted at ice-cold temperature and three 3 mm punches of the skin were taken using a tissue puncher. The core sample was microdissected to leave only the epidermal and dermal layers. All other layers were removed. […] The tissue punch was placed in a 1.5 mL Eppendorf tube and snap-frozen in liquid nitrogen. A mortar and pestle stored at −80° C. was then used to pulverize skin tissue. The pulverized sample was further washed in 1 mL of ice-cold washing buffer ((0.15 M NaCl, 50 mM sodium borate, pH 8.0, with PMSF: Sigma P7626, 0.25 mM, and Aprotinin: Sigma A6279, 1 μL per mL). The tissue buffer was centrifuged (20000 g for 10 minutes at 4° C.), and the supernatant was discarded. Fresh wash buffer (1 mL) was added and the Eppendorf tube was agitated for 5 minutes at 4° C. on a vortex shaker. Washing was repeated two more times. After the last wash, the supernatant was completely removed. The rat dorsal skin pellet was re-suspended in 6 M urea 50 mM sodium borate buffer, according to sample weight to achieve final urea concentration of 4.5 M. The extraction buffer contains protease inhibitors; aprotinin and PMSF as above. Each homogenate was well-mixed by continuous vortexing at 4° C. for a 3 hour extraction. After 3 hours, […] 50 mM sodium borate buffer was added to each sample according to sample size to achieve the final urea concentration of 2.4 M. Protease inhibitors—aprotinin and PMSF—are present. The mixture was again centrifuged at (20000 g at 4° C. for 10 minutes) and the supernatant was collected in a clean, cold eppendorf. To 50 μl of sample, pargyline (final concentration at 0.5 mM) and mofegiline (final concentration at 1 μM) were added. Enzyme mix (25 μL) was transferred to the test plate with or without […] (0.5 μl 30 mM) and incubated at 37° C. for 30 minutes. Reaction mix (25 μL) is added to each well, plate fluorescence is measured every 2.5′ with or without 100 μM BAPN for the low controls (Ex: 544 nm/Em: 590 nm/gain: 1260 at 37° C.).

skin fibrosis = test: Mouse model of sclerosis (bleomycin-induced skin fibrosis); assay type: in vivo, male C57BL/6; conditions: […] in a topical formulation from day 3, histology after 21 days
Experimental: Subcutaneous bleomycin (0.1 U/kg) was administered every second day (for 21 days total) to male C57BL/6 to induced skin fibrosis as a model of sclerosis. […] Histology was completed after 21 days.

[1] = Chemical stability in topical formulation; assay type: physicochemical
Description: The stability of a drug product formulation can have a significant impact on the length and cost of drug development, the nature of the studies required to support regulatory submissions, and, ultimately, safety and approvability. It is important to minimize the amount of impurities or degradation products that form over time due to interactions between the various ingredients in a formulation. This can be particularly important in compositions that are designed to increase skin permeability.

[2] = Skin permeability, Franz diffusion cell system; assay type: in vitro ADME, human; conditions: topical formulation containing 3% compound; for Concentration of Compound 1 in the receptor chamber: human skin
Description: Skin permeability is essential when considering topical application to treat skin conditions. One way to evaluate skin permeability is to use a Franz diffusion cell system with human skin as a membrane (Particle Sciences; Technical Brief 2009; Vol. 10). The donor compound, topically formulated, is applied on the top chamber and diffusion through the skin is monitored at relevant time points by sampling the solution in the receptor chamber via the sampling port. The concentration of Compound 1 was determined by quantitative HPLC analysis.

In the case of N#CCCN [BAPN, β-aminopropionitrile, reference compound], the IC50 (recombinant human DAO) is reported as > 30 µM.
With NC/C=C(\F)C(F)(F)S(=O)(=O)c1ccccc1 [Compound 1, (Z)-3,4,4-trifluoro-4-(phenylsulfonyl)but-2-en-1-amine] the “dorsal skin LOX activity compared to the placebos” value (LOX; cream containing 1% Compound 1, 400 mg/rat) was “significantly lower”, the “dorsal skin LOX activity compared to the placebos” value (LOX; cream containing 3% Compound 1, 200 mg/rat) was “significantly lower” and the “LOX activity in the skin of rats” value (LOX; topical application of cream versus control (FIG. 3)) was “reduction”. The “average LOX score” value (skin fibrosis) was “significant improvement”, the average collagen score (skin fibrosis) was “significant improvement” and the composite skin score (skin fibrosis) was “significant improvement”. The “% Area at 265 nm” value ([1]; 6% in formulation 2, 2-8° C., 161 days) was 100.00 % Area, the “% Area at 265 nm” value ([1]; 6% in formulation 2, 40° C., 161 days) was 99.66 % Area and the “% Area at 265 nm” value ([1]; 6% in formulation 2, reference sample) was 100.00 % Area. For the same compound, the “% Area at 265 nm” value ([1]; 6% in formulation 2, rt, 161 days) was 100.00 % Area, the “% Area at 265 nm” value ([1]; 8% in formulation 2, 2-8° C., 161 days) was 99.91 % Area and the “% Area at 265 nm” value ([1]; 8% in formulation 2, 40° C., 161 days) was 99.36 % Area. The “% Area at 265 nm” value ([1]; 8% in formulation 2, reference sample) was 100.00 % Area, the “% Area at 265 nm” value ([1]; 8% in formulation 2, rt, 161 days) was 99.74 % Area and the compound peak percentage ([1]; topical formulation 2, all the tested conditions) was “above 99.5%”. For the same compound, the “Concentration of Compound 1 in the receptor chamber” value (from here on “Concentration”) ([2]; 0 hr) was 0 nM, the “Concentration” value ([2]; 2 hr) was 17 nM and the “Concentration” value ([2]; 4 hr) was 42 nM. The “Concentration” value ([2]; 6 hr) was 166 nM, the “Concentration” value ([2]; 20 hr) was 1742 nM and the “permeability and diffusion across the membrane (in words)” value ([2]; time dependent) was “good permeability and diffusion”.
With CNc1ccccc1S(=O)(=O)C(F)(F)/C(F)=C/CN [Compound 4, (Z)-2-((4-amino-1,1,2-trifluorobut-2-en-yl)sulfony1)-N-methylaniline] the IC50 (recombinant human DAO) was > 30 µM.
